Measured values from ChEMBL document CHEMBL4507310, “Data for DCP probe A-1211212” (2021).

Columns and labels:
[1] = target: D(3) dopamine receptor (Homo sapiens, UniProt P35462); assay: GPCRScan assay: inhibition of D3; design: radioligand conc. used [nm] 0.5 – 1.8, parental cells HEKT
[2] = target: Sodium-dependent dopamine transporter (Homo sapiens, UniProt Q01959); assay: GPCRScan assay: inhibition of DAT; design: radioligand conc. used [nm] 3.6 – 16.0, parental cells stable HEK
[3] = target: Alpha-1D adrenergic receptor (Homo sapiens, UniProt P25100); assay: GPCRScan assay: inhibition of Alpha1D; design: radioligand conc. used [nm] 0.3 – 1.0, parental cells stable
[4] = test system: RS4-11; assay: CellTiter-Glo Luminescent Cell Viability Assay with RS4-11 cells (BCL-2 dependent cell line); format: functional, cell-based; conditions: Homo sapiens
[5] = target: D(1A) dopamine receptor (Homo sapiens) (UniProt P21728); assay: D1 (h) Eurofins-Cerep binding assay; design: ligand concentration 0.3 nM; conditions: filed as antagonist, Compound concentration 10.0 uM
D(1A) dopamine receptor (Homo sapiens), sequence (P21728 whole entry): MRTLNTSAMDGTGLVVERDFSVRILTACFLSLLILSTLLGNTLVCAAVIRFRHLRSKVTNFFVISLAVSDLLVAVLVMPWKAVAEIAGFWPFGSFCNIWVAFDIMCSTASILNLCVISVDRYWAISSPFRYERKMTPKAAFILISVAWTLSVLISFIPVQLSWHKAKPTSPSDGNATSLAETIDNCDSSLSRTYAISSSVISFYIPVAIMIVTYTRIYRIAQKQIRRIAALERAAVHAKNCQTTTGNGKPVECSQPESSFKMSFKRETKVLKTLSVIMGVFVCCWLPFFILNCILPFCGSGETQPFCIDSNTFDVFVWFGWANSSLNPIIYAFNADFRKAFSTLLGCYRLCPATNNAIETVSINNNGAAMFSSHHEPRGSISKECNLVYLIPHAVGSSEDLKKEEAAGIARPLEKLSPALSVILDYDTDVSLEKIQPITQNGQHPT

[6] = target: Tyrosine-protein kinase ABL2 (Homo sapiens) (UniProt P42684); conditions: Compound concentration 1000.0 nM
Tyrosine-protein kinase ABL2 (Homo sapiens), sequence (P42684 whole entry, the tested form may be a part): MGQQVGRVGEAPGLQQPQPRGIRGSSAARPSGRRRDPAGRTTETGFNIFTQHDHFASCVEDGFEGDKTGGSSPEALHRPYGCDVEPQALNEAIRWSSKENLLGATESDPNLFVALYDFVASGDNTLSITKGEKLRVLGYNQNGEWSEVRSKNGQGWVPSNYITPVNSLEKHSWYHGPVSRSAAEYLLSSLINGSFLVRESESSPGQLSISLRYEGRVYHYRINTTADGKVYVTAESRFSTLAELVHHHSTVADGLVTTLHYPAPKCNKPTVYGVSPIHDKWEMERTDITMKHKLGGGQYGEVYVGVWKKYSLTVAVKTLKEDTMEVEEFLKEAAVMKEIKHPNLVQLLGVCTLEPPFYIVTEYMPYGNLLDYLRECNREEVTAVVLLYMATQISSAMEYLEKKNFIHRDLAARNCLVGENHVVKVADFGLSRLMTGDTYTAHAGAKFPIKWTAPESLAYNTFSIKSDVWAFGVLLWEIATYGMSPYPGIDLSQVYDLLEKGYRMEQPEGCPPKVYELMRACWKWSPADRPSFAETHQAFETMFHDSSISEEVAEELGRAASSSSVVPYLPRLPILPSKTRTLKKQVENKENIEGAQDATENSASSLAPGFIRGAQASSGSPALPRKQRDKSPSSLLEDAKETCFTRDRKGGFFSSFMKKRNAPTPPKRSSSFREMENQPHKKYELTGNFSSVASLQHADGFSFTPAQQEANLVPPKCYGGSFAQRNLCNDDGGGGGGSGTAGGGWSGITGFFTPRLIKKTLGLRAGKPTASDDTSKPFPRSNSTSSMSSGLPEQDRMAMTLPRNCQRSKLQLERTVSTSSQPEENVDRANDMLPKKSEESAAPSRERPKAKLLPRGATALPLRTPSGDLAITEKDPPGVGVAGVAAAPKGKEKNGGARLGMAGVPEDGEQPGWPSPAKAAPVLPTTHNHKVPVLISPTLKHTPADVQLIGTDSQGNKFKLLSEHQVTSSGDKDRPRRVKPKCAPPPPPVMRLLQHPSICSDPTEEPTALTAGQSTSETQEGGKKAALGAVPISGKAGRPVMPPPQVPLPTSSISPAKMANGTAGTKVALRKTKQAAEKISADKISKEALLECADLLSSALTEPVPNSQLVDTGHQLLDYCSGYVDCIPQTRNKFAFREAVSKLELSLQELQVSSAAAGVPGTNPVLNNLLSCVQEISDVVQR

[7] = target: Ankyrin repeat and protein kinase domain-containing protein 1 (Homo sapiens) (UniProt Q8NFD2); conditions: Compound concentration 1000.0 nM
Ankyrin repeat and protein kinase domain-containing protein 1 (Homo sapiens), sequence (Q8NFD2 whole entry, the tested form may be a part): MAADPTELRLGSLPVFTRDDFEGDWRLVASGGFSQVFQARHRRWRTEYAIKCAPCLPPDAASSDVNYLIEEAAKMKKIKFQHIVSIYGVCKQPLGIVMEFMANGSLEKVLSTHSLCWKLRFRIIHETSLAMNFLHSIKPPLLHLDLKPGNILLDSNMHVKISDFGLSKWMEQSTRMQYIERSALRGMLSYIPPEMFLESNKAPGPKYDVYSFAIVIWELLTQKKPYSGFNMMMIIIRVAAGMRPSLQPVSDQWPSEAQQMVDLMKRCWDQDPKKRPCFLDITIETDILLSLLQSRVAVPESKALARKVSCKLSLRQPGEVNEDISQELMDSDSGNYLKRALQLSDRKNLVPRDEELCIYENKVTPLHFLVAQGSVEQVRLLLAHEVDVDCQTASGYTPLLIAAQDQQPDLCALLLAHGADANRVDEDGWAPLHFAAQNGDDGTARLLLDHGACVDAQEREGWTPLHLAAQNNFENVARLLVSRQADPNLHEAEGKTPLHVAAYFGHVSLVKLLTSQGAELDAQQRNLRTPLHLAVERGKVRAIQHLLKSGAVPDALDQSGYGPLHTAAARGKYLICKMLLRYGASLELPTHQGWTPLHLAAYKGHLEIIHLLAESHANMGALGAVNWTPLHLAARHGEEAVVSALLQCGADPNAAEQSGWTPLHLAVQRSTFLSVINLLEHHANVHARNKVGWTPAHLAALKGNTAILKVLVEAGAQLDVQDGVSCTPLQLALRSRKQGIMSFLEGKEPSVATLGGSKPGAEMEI

[8] = target: Rhodopsin kinase GRK7 (Homo sapiens) (UniProt Q8WTQ7); conditions: Compound concentration 1000.0 nM
Rhodopsin kinase GRK7 (Homo sapiens), sequence (Q8WTQ7 whole entry): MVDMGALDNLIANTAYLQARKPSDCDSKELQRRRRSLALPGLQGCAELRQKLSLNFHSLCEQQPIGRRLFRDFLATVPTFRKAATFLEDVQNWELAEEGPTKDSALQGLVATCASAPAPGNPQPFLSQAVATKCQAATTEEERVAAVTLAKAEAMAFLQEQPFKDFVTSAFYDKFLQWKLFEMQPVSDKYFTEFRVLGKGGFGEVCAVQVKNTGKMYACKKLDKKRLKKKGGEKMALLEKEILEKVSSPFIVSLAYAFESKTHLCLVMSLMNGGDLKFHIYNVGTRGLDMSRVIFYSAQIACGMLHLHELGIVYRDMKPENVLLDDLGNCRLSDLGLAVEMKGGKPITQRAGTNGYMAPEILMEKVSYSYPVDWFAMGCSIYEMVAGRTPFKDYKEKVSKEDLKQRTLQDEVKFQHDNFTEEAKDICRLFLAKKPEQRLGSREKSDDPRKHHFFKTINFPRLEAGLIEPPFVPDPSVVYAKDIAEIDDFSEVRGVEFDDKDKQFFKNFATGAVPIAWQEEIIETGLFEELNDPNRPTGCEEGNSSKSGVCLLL

[9] = target: Dual specificity mitogen-activated protein kinase kinase 2 (Homo sapiens) (UniProt P36507); conditions: Compound concentration 1000.0 nM
Dual specificity mitogen-activated protein kinase kinase 2 (Homo sapiens), sequence (P36507 whole entry): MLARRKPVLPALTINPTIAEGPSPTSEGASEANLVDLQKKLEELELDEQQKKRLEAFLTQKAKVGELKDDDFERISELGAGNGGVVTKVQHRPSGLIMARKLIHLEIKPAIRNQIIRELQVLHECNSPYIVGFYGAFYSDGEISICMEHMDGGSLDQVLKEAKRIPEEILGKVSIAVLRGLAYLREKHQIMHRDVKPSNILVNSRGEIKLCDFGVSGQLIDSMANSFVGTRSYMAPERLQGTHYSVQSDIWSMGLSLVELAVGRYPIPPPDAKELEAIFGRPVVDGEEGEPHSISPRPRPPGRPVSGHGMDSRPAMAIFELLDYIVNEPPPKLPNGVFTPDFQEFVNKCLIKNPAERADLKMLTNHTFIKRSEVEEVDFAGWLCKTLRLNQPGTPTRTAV

[10] = test system: Hepatocyte growth factor receptor (Homo sapiens), P08581 [Y1235D]; conditions: Compound concentration 1000.0 nM
[11] = target: Tyrosine-protein kinase SYK (Homo sapiens) (UniProt P43405); conditions: Compound concentration 1000.0 nM
[12] = target: Serine/threonine-protein kinase 32C (Homo sapiens) (UniProt Q86UX6); conditions: Compound concentration 1000.0 nM
Serine/threonine-protein kinase 32C (Homo sapiens), sequence (Q86UX6 whole entry): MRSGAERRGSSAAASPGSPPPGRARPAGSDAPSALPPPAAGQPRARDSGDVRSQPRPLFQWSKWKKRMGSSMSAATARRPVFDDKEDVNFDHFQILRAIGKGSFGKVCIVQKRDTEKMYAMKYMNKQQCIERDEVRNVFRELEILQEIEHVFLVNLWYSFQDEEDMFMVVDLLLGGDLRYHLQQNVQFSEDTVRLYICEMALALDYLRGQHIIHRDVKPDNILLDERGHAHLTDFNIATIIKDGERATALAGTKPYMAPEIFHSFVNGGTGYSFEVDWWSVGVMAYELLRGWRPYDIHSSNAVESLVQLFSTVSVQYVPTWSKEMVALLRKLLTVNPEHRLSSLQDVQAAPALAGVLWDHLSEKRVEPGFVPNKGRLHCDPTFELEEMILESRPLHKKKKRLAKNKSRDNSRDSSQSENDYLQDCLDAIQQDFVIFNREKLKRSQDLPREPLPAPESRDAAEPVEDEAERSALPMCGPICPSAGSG

[13] = target: Kappa-type opioid receptor (Homo sapiens) (UniProt P41145); conditions: Compound concentration 10.0 uM
[14] = target: Induced myeloid leukemia cell differentiation protein Mcl-1 (Homo sapiens, UniProt Q07820); assay: Time-resolved fluorescence energy transfer (TR-FRET) with MCL1
[15] = test system: AMO1; assay: CellTiter-Glo Luminescent Cell Viability Assay ( MCL-1 dependent cell line AMO-1); format: functional, cell-based; conditions: Homo sapiens
[16] = target: T1, 5-hydroxytryptamine receptor 1A (Homo sapiens) (UniProt P08908); conditions: Compound concentration 10.0 uM
T1 sequence (whole entry): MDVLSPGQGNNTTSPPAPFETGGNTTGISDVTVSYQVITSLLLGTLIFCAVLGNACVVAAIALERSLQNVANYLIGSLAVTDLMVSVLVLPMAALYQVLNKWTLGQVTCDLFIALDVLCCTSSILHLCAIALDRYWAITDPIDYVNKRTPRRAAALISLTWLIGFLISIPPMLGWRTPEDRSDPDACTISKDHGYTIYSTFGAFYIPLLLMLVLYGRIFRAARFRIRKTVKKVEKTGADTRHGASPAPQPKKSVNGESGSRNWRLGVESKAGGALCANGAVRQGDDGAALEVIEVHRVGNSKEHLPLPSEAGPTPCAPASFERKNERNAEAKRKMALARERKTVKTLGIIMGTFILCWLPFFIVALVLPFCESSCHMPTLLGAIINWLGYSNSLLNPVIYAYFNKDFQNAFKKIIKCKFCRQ

[17] = target: 5-hydroxytryptamine receptor 6 (Homo sapiens) (UniProt P50406); conditions: Compound concentration 10.0 uM
[18] = target: 5-hydroxytryptamine receptor 7 (Homo sapiens) (UniProt P34969); conditions: Compound concentration 10.0 uM
[19] = target: D(4) dopamine receptor (Homo sapiens) (UniProt P21917); conditions: Compound concentration 10.0 uM
D(4) dopamine receptor (Homo sapiens), sequence (P21917 whole entry): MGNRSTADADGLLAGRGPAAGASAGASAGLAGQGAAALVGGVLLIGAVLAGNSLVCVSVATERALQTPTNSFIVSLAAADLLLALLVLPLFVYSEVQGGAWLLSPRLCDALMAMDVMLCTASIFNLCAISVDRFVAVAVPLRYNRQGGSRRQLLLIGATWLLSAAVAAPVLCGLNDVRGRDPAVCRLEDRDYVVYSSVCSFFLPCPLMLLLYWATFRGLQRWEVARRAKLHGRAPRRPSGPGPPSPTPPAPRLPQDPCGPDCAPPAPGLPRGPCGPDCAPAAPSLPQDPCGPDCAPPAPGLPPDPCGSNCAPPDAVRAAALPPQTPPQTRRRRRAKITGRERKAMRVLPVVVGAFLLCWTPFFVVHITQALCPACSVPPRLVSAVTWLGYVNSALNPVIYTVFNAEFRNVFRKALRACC

[20] = target: Sodium-dependent noradrenaline transporter (Homo sapiens) (UniProt P23975); conditions: Compound concentration 10.0 uM
[21] = target: Beta-2 adrenergic receptor (Homo sapiens) (UniProt P07550); conditions: Compound concentration 10.0 uM
[22] = target: Beta-3 adrenergic receptor (Homo sapiens) (UniProt P13945); conditions: Compound concentration 10.0 uM
[23] = target: Alpha-1D adrenergic receptor (Homo sapiens) (UniProt P25100); conditions: Compound concentration 10.0 uM

Sodium-dependent dopamine transporter, sequence (Q01959 whole entry): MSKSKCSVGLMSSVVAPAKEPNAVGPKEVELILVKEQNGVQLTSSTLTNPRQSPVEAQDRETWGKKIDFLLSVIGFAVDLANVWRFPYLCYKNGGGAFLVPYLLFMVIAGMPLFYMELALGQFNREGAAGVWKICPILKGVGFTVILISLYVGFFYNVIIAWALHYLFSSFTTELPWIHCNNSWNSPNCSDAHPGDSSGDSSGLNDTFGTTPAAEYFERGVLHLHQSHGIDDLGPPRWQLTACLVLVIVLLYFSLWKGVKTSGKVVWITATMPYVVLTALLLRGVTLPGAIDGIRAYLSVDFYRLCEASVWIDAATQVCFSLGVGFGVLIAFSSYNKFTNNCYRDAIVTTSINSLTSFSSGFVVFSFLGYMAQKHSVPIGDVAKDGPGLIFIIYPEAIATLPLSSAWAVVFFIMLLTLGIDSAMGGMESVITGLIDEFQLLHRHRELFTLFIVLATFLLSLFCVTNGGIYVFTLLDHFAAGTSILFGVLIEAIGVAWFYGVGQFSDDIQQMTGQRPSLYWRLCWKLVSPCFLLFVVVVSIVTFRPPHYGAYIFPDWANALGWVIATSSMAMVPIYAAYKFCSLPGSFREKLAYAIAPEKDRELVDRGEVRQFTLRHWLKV

Row | SMILES | % Inhibition of Control Specific Binding (Mean n=2) [5] | residual activity [6] | residual activity [7] | residual activity [8] | residual activity [9] | residual activity [10] | residual activity [11] | residual activity [12] | also measured
1 | O=C(NS(=O)(=O)c1ccc(NCC2CCOCC2)c([N+](=O)[O-])c1)c1ccc(N2CCN(Cc3ccc(C(F)(F)F)cc3-c3ccc(Cl)cc3)CC2)cc1Oc1cnc2[nH]ccc2c1 [A-1210227] | 6.4% | 100% | 77% | 78% | 100% | 98% | 99% | 55% | Ki [1]: 10 µM; Ki ([2]; read-out: Ki): 9.8 µM; Ki ([2]; read-out: pKi (converted)): 9.77 µM; Ki [3]: 10 µM; EC50 [4]: > 5 µM (not active); inhibition [13]: -0.08%
2 | CO[C@H]1CC[C@H](CNc2ccc(S(=O)(=O)NC(=O)c3ccc(N4CCN(CC5=C(c6ccc(Cl)cc6)CC(C)(C)CC5)CC4)cc3Oc3cnc4[nH]ccc4c3)cc2[N+](=O)[O-])CC1 [A-1211212] | 0.7% | 81% | 81% | 100% | 100% | 92% | 62% | 54% | IC50 [14]: 2.05 µM (not active); EC50 [15]: > 1 µM (not active); inhibition [16]: -7.27%; inhibition [17]: -8.56%; inhibition [18]: -7.24%; inhibition [19]: -4.72%; inhibition [20]: 39.5%; inhibition [21]: 21.3%; inhibition [22]: -6.65%; inhibition [23]: -9.01%
